Reference: patent publication US9714228B2, “Dihydrofuran derivatives as insecticidal compounds” (Syngenta Participations AG, priority 2010, dated 2017)

Key:
Format in all cases: in vivo
[1] = test system: Diabrotica balteata; experiment: Diabrotica balteata, L2 larvae on treated artificial diet; conditions: 120 h, 200 ppm (concentration in well 18 ppm), 5 days incubation
Procedure: (§1) Diabrotica balteata (Corn Root Worm): A 24-well microtiter plate (MTP) with artificial diet was treated with test solutions at an application rate of 200 ppm (concentration in well 18 ppm) by pipetting. After drying, the MTPs were infested with L2 larvae (6-10 per well). After an incubation period of 5 days, samples were checked for larval mortality and growth regulation.

[2] = test system: Heliothis virescens; experiment: Heliothis virescens, eggs on treated artificial diet; conditions: 96 h, 200 ppm (concentration in well 18 ppm), 4 days incubation
Procedure: Heliothis virescens (Tobacco Budworm): Eggs (0-24 h old) were placed in 24-well microtiter plate on artificial diet and treated with test solutions at an application rate of 200 ppm (concentration in well 18 ppm) by pipetting. After an incubation period of 4 days, samples were checked for egg mortality, larval mortality, and growth regulation.

[3] = test system: Plutella xylostella; experiment: Plutella xylostella, L2 larvae on treated artificial diet; conditions: 144 h, 200 ppm (concentration in well 18 ppm), 6 days incubation
Procedure: as §1, with “Plutella xylostella (Diamond Back Moth):” for “Diabrotica balteata (Corn Root Worm): A”, “(7-12” for “(6-10”, “6” for “5”

[4] = test system: Myzus persicae; experiment: Myzus persicae (sachet), mixed population, sucrose solution; conditions: 120 h, application rate 12.5 ppm, mortality 5 days after infestation
Description: Myzus persicae (Sachet) (Green Peach Aphid) Mixed Population Test compounds were applied by pipette into 24 well plates and mixed with Sucrose solution. The plates were closed with a stretched Parafilm. A plastic stencil with 24 holes is placed onto the plate and infested pea seedlings were placed directly on the Parafilm. The infested plate is closed with a gel blotting paper and another plastic stencil and then turned upside down. 5 days after infestation the samples were checked on mortality. Application rate: 12.5 ppm.

[5] = test system: Tetranychus urticae; experiment: Tetranychus urticae, sprayed bean leaf discs; conditions: foliar, 192 h, bean leaf discs sprayed at 200 ppm, mixed ages, checked 8 days later
Description: Tetranychus urticae (Two-Spotted Spider Mite): Bean leaf discs on agar in 24-well microtiter plates were sprayed with test solutions at an application rate of 200 ppm. After drying, the leaf discs are infested with mite populations of mixed ages. 8 days later, discs are checked for egg mortality, larval mortality, and adult mortality.

[6] = test system: Thrips tabaci; experiment: Thrips tabaci, sprayed sunflower leaf discs; conditions: foliar, 168 h, sunflower leaf discs sprayed at 200 ppm, mixed ages, mortality after 7 days
Procedure: Thrips tabaci (Onion Thrips): Sunflower leaf discs were placed on agar in a 24-well microtiter plate and sprayed with test solutions at an application rate of 200 ppm. After drying, the leaf discs were infested with an […] population of mixed ages. After an incubation period of 7 days, samples were checked for mortality.

[7] = test system: Spodoptera littoralis; experiment: Spodoptera littoralis, sprayed cotton leaf discs, L1 larvae; conditions: foliar, 72 h, cotton leaf discs sprayed at 200 ppm, 3 days after treatment
Description: Spodoptera littoralis (Egyptian Cotton Leafworm): Cotton leaf discs were placed on agar in a 24-well microtiter plate and sprayed with test solutions at an application rate of 200 ppm. After drying, the leaf discs were infested with 5 L1 larvae. The samples were checked for mortality, feeding behavior, and growth regulation 3 days after treatment (DAT).

[8] = test system: Spodoptera littoralis; experiment: Spodoptera littoralis (systemic), salad grown on treated agar, eggs; conditions: 120 h, application rate 12.5 ppm, checked 5 days after infestation (mortality, repellent effect, feeding behavior, growth regulation)
Description: Spodoptera littoralis (Systemic) (Egyptian Cotton Leaf Worm) Test compounds were applied by pipette into 24 well plates and mixed with agar. Salad seeds were placed on the agar and the multi well plate is closed by another plate which contains also agar. After 7 days the roots have absorbed the compound and the salad has grown into the lid plate. The salad leafs were now cut off into the lid plate. Spodoptera eggs were pipette through a plastic stencil on a humid gel blotting paper and the plate closed with it. The samples are checked for mortality, repellent effect, feeding behavior, and growth regulation 5 days after infestation. Application rate: 12.5 ppm

Cc1cc(C2=COC(c3cc(Cl)cc(Cl)c3)(C(F)(F)F)C2)ccc1C(=O)NCc1ccccc1F (centres unmarked) [Compound D10]
≥ 80%: pest or weed control at 200 ppm [1] | pest or weed control at 200 ppm [2] | pest or weed control at 200 ppm [3] | pest or weed control at 12.5 ppm [4] | pest or weed control at 200 ppm [5] | pest or weed control at 200 ppm [6] | pest or weed control at 200 ppm [7]

CSCC(C)(C)NC(=O)c1ccc(C2=COC(c3cc(Cl)cc(Cl)c3)(C(F)(F)F)C2)cc1C (centres unmarked) [Compound D19]
≥ 80%: pest or weed control at 200 ppm [1] | pest or weed control at 200 ppm [2] | pest or weed control at 200 ppm [3] | pest or weed control at 12.5 ppm [4] | pest or weed control at 200 ppm [5] | pest or weed control at 200 ppm [7]

Cc1cc(C2=COC(c3cc(Cl)cc(Cl)c3)(C(F)(F)F)C2)ccc1C(=O)NCC1CCCO1 (centres unmarked) [Compound D8]
≥ 80%: pest or weed control at 200 ppm [1] | pest or weed control at 200 ppm [2] | pest or weed control at 200 ppm [3] | pest or weed control at 12.5 ppm [8] | pest or weed control at 12.5 ppm [4] | pest or weed control at 200 ppm [5] | pest or weed control at 200 ppm [6] | pest or weed control at 200 ppm [7]

Cc1cc(C2=COC(c3cc(Cl)cc(Cl)c3)(C(F)(F)F)C2)ccc1C(=O)NCc1ccccn1 (centres unmarked) [Compound D15]
≥ 80%: pest or weed control at 200 ppm [1] | pest or weed control at 200 ppm [2] | pest or weed control at 200 ppm [3] | pest or weed control at 12.5 ppm [8] | pest or weed control at 12.5 ppm [4] | pest or weed control at 200 ppm [5] | pest or weed control at 200 ppm [6] | pest or weed control at 200 ppm [7]

Cc1cc(C2=CC(c3cc(Cl)cc(Cl)c3)(C(F)(F)F)OC2)ccc1C(=O)NC1CC(=NOCC(F)(F)F)C1 (centres unmarked) [Compound A79]
≥ 80%: pest or weed control at 200 ppm [1] | pest or weed control at 200 ppm [2] | pest or weed control at 200 ppm [3] | pest or weed control at 200 ppm [5] | pest or weed control at 200 ppm [6] | pest or weed control at 200 ppm [7]

Cc1cc(C2=COC(c3cc(Cl)cc(Cl)c3)(C(F)(F)F)C2)ccc1C(=O)NC(C)c1ccccc1 (centres unmarked) [Compound D11]
≥ 80%: pest or weed control at 200 ppm [1] | pest or weed control at 200 ppm [2] | pest or weed control at 200 ppm [3] | pest or weed control at 12.5 ppm [4] | pest or weed control at 200 ppm [5] | pest or weed control at 200 ppm [6] | pest or weed control at 200 ppm [7]

Cc1cc(C2=COC(c3cc(Cl)cc(Cl)c3)(C(F)(F)F)C2)ccc1C(=O)NC1CCC1 (centres unmarked) [Compound D23]
≥ 80%: pest or weed control at 200 ppm [1] | pest or weed control at 200 ppm [2] | pest or weed control at 200 ppm [3] | pest or weed control at 12.5 ppm [4] | pest or weed control at 200 ppm [5] | pest or weed control at 200 ppm [6] | pest or weed control at 200 ppm [7]

Cc1cc(C2=COC(c3cc(Cl)cc(Cl)c3)(C(F)(F)F)C2)ccc1C(=O)NCc1ccccc1 (centres unmarked) [Compound D9]
≥ 80%: pest or weed control at 200 ppm [1] | pest or weed control at 200 ppm [2] | pest or weed control at 200 ppm [3] | pest or weed control at 12.5 ppm [4] | pest or weed control at 200 ppm [5] | pest or weed control at 200 ppm [6] | pest or weed control at 200 ppm [7]

Cc1cc(C2=COC(c3cc(Cl)cc(Cl)c3)(C(F)(F)F)C2)ccc1C(=O)NCC(F)(F)F (centres unmarked) [Compound D1]
≥ 80%: pest or weed control at 200 ppm [1] | pest or weed control at 200 ppm [2] | pest or weed control at 200 ppm [3] | pest or weed control at 12.5 ppm [8] | pest or weed control at 200 ppm [6] | pest or weed control at 200 ppm [7]

Cc1cc(C2=COC(c3cc(Cl)cc(Cl)c3)(C(F)(F)F)C2)ccc1C(=O)NCc1ccc(Cl)nc1 (centres unmarked) [Compound D13]
≥ 80%: pest or weed control at 200 ppm [1] | pest or weed control at 200 ppm [2] | pest or weed control at 200 ppm [3] | pest or weed control at 12.5 ppm [4] | pest or weed control at 200 ppm [5] | pest or weed control at 200 ppm [7]

Cc1cc(C2=CC(c3cc(Cl)cc(Cl)c3)(C(F)(F)F)OC2)ccc1C(=O)NCc1ccc2c(c1)OCCO2 (centres unmarked) [Compound A44]
≥ 80%: pest or weed control at 200 ppm [1] | pest or weed control at 200 ppm [2] | pest or weed control at 200 ppm [3] | pest or weed control at 200 ppm [7]

Cc1cc(C2=COC(c3cc(Cl)cc(Cl)c3)(C(F)(F)F)C2)ccc1C(=O)Nc1cccc(F)c1 (centres unmarked) [Compound D14]
≥ 80%: pest or weed control at 200 ppm [1] | pest or weed control at 200 ppm [2] | pest or weed control at 200 ppm [3] | pest or weed control at 12.5 ppm [4] | pest or weed control at 200 ppm [5] | pest or weed control at 200 ppm [6] | pest or weed control at 200 ppm [7]

COc1ccc(CNC(=O)c2ccc(C3=COC(c4cc(Cl)cc(Cl)c4)(C(F)(F)F)C3)cc2C)cc1 (centres unmarked) [Compound D12]
≥ 80%: pest or weed control at 200 ppm [1] | pest or weed control at 200 ppm [2] | pest or weed control at 200 ppm [3] | pest or weed control at 12.5 ppm [4] | pest or weed control at 200 ppm [5] | pest or weed control at 200 ppm [6] | pest or weed control at 200 ppm [7]

Cc1cc(C2=COC(c3cc(Cl)cc(Cl)c3)(C(F)(F)F)C2)ccc1C(=O)NC1CC2CCC1C2 (centres unmarked) [Compound D22]
≥ 80%: pest or weed control at 200 ppm [1] | pest or weed control at 200 ppm [3] | pest or weed control at 200 ppm [6]

N#Cc1cc(C2=CC(c3cc(Cl)cc(Cl)c3)(C(F)(F)F)OC2)ccc1-n1cc(Br)cn1 (centres unmarked) [Compound G2, 2-(4-Bromo-pyrazol-1-yl)-5-[5-(3,5-dichloro-phenyl)-5-trifluoromethyl-2,5-dihydro-furan-3-yl]-benzonitrile]
≥ 80%: pest or weed control at 200 ppm [7]

Cc1cc(NC(=O)c2ccc(C3=COC(c4cc(Cl)cc(Cl)c4)(C(F)(F)F)C3)cc2C)n(C)n1 (centres unmarked) [Compound D16]
≥ 80%: pest or weed control at 200 ppm [1] | pest or weed control at 200 ppm [2] | pest or weed control at 200 ppm [3] | pest or weed control at 12.5 ppm [4] | pest or weed control at 200 ppm [6] | pest or weed control at 200 ppm [7]

COCC(C)NC(=O)c1ccc(C2=COC(c3cc(Cl)cc(Cl)c3)(C(F)(F)F)C2)cc1C (centres unmarked) [Compound D4]
≥ 80%: pest or weed control at 200 ppm [1] | pest or weed control at 200 ppm [2] | pest or weed control at 200 ppm [3] | pest or weed control at 12.5 ppm [4] | pest or weed control at 200 ppm [5] | pest or weed control at 200 ppm [6] | pest or weed control at 200 ppm [7]

Cc1cc(C2=COC(c3cc(Cl)cc(Cl)c3)(C(F)(F)F)C2)ccc1C(=O)NC1(C)CSC1 (centres unmarked) [Compound D18]
≥ 80%: pest or weed control at 200 ppm [1] | pest or weed control at 200 ppm [2] | pest or weed control at 200 ppm [3] | pest or weed control at 12.5 ppm [4] | pest or weed control at 200 ppm [5] | pest or weed control at 200 ppm [6] | pest or weed control at 200 ppm [7]

CCCCNC(=O)c1ccc(C2=COC(c3cc(Cl)cc(Cl)c3)(C(F)(F)F)C2)cc1C (centres unmarked) [Compound D3]
≥ 80%: pest or weed control at 200 ppm [1] | pest or weed control at 200 ppm [2] | pest or weed control at 200 ppm [3] | pest or weed control at 12.5 ppm [4] | pest or weed control at 200 ppm [5] | pest or weed control at 200 ppm [6] | pest or weed control at 200 ppm [7]

Cc1csc(NC(=O)c2ccc(C3=COC(c4cc(Cl)cc(Cl)c4)(C(F)(F)F)C3)cc2C)n1 (centres unmarked) [Compound D17]
≥ 80%: pest or weed control at 200 ppm [1] | pest or weed control at 200 ppm [2] | pest or weed control at 200 ppm [3] | pest or weed control at 12.5 ppm [4] | pest or weed control at 200 ppm [7]

CCC(C)NC(=O)c1ccc(C2=COC(c3cc(Cl)cc(Cl)c3)(C(F)(F)F)C2)cc1C (centres unmarked) [Compound D7]
≥ 80%: pest or weed control at 200 ppm [1] | pest or weed control at 200 ppm [2] | pest or weed control at 200 ppm [3] | pest or weed control at 12.5 ppm [4] | pest or weed control at 200 ppm [7]

Cc1cc(C2=COC(c3cc(Cl)cc(Cl)c3)(C(F)(F)F)C2)ccc1C(=O)NCCC(F)(F)F (centres unmarked) [Compound D6]
≥ 80%: pest or weed control at 200 ppm [1] | pest or weed control at 200 ppm [2] | pest or weed control at 200 ppm [3] | pest or weed control at 12.5 ppm [4] | pest or weed control at 200 ppm [5] | pest or weed control at 200 ppm [6] | pest or weed control at 200 ppm [7]
